# Measured values: PMC11741006, “Raman active diyne-girder conformationally constrained p53 stapled peptides bind to MDM2 for visualisation without fluorophores” (RSC Chemical Biology, 2025)
# Residues, ends and D or L forms follow the SMILES beside them. *: point of attachment. FITC = O=C1OC2(c3ccc(O)cc3Oc3cc(O)ccc32)c2ccc(NC(=S)*)cc21; Ahx = NCCCCCC(=O)O
# How the values were obtained:
# [1] = Circular dichroism spectroscopy, percentage helicity; type: physicochemical; conditions: CD in PBS pH 7.4, room temperature; from MRE at 222 nm, equations of Luo and Baldwin; peptides analysed at 25 μM and 50 μM
# Description: Following the successful synthesis of the diyne peptide 4, it was important to identify the effect of the modified staple on the α-helical nature of the peptide. The effectiveness of the diyne staple as an α-helical constraint was assessed by CD. Experiments were set out to directly compare the diyne stapled peptide 4 to the alkene stapled peptides (cis-2 and trans-3), with the linear peptide 1 employed as a control. CD was performed at two concentrations to investigate whether peptide concentration influenced helicity, as coiled-coil structures are known to increase helicity.[25] Peptide concentrations were quantified using a NanoDrop™ One Microvolume UV-Vis spectrophotometer using the UV absorption of the peptides at 280 nm.[26] Extinction coefficients of the peptides were calculated from Trp and Tyr residues and the Beer–Lambert law employed to calculate the concentrations.
# Each of the peptides (1–4) were analysed at 25 μM and 50 μM in phosphate buffered saline (PBS, pH 7.4) (Fig. 3). CD spectra were measured from 190–260 nm and the characteristic α-helical negative maxima examined for their intensity at 208 nm and 222 nm.[27] […] This is to be expected due to the random coil nature of 1. […] Helicity calculations were performed following conversion of the measured degrees of ellipticity (θ) data to mean residue ellipticity (MRE) (eqn (S1), ESI ^†). […]
# Cell Permeability Fluorescence Assay […]
# [2] = molecular target: T1, MDMX (1–134) (Homo sapiens, UniProt O15151); experiment: Fluorescence polarisation direct binding assay, MDMX; conditions: direct FP binding; 10 nM FITC peptide in Tris buffer pH 7.6; protein serially diluted 10 μM to 9 pM; 3 h, room temperature; quadratic ligand depletion fit; n = 3
# T1 construct: tested against MDMX (1–134); His6-GST (TEV-cleavable) (N, cleaved yes); made in house; host or cells: E. coli Rosetta 2(DE3)pLysS
# T1 sequence (O15151 1-134): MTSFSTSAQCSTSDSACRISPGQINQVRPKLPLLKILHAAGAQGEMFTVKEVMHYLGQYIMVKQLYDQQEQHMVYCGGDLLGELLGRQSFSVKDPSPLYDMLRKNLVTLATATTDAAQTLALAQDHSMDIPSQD
# Description: The binding properties of the peptide were assessed using a biophysical FP assay. Specifically, a direct binding assay was conducted to calculate the Kd values of the fluorescent peptide ligands binding to the target proteins (eqn (S3), ESI ^†).[29] […] The peptides were first tested for binding with MDM2 (1–138). […] Peptide solutions were made up to a concentration of 10 nM and varying concentrations of protein (10 μM to 9 pM) were incubated with the peptide with FP measurements taken after 3 h (Fig. 4). […] The final analogue examined for its binding of MDM2 was 5FITC, the diyne negative control. […]
# resuspension buffer. […]
# The His6-GST -tagged proteins were then cleaved with TEV while dialyzing into 330 mM NaCl, PBS, 5 mM BME for 20 hours at 4 °C. […] Protein concentration was measured at an absorbance of 595 nm with the Bio-rad Protein Assay Kit II using bovine serum albumin as a standard. […]
# Fluorescence Polarisation Binding Assay
# The binding properties of the peptides were assessed using a biophysical FP assay. […] All FP measurements were performed on a microplate reader (CLARIOstar) in black 384-well microplates with 20 μL of sample solution per well. […]
# was added and serially diluted from 10 μM to 9 pM. […] Plates were placed in a PerkinElmer Victor X5 plate reader with excitation measured at 531 nm and emission measured at 595 nm. […]
# [3] = molecular target: T2, MDM2 (1–138) (Homo sapiens, UniProt Q00987); experiment: Fluorescence polarisation direct binding assay, MDM2; conditions: direct FP binding; 10 nM FITC peptide in Tris buffer pH 7.6; protein serially diluted 10 μM to 9 pM; 3 h, room temperature; quadratic ligand depletion fit; n = 3
# T2 construct: His6-GST (TEV-cleavable) (N, cleaved yes); made in house; host or cells: E. coli Rosetta 2(DE3)pLacI
# T2 sequence (Q00987 1-138): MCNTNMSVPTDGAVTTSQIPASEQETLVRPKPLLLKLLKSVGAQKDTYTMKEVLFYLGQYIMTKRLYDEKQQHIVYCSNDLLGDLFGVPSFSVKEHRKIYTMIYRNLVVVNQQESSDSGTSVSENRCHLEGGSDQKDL
# Description: The binding properties of the peptides were assessed using a biophysical FP assay. Specifically, a direct binding assay was conducted to calculate the Kd values of the fluorescent peptide ligands binding to the target proteins. Fluorescently labelled peptides were tested for binding to MDM2 (1-138) and MDMX (1-134). […] All FP measurements were performed on a microplate reader (CLARIOstar) in black 384-well microplates with 20 μL of sample solution per well.
# was added and serially diluted from 10 μM to 9 pM. Peptide (10 nM in Tris buffer pH 7.6) was then added to all wells and mixed. The sample were left to incubate at room temperature for 3 hours. Plates were placed in a PerkinElmer Victor X5 plate reader with excitation measured at 531 nm and emission measured at 595 nm. The raw data was normalized using baseline correction, where the baseline was defined as the fluorescence polarisation measured in the absence of peptide. Normalised data were then plotted in Prism 7.0 and fitted by using the quadratic ligand depletion model (Equation S3).
# Y is the fluorescent polarisation signal measured at each datapoint. […]
molecule,measurement,setting,value
"Ac-LTFR8EYWAQ(Cba)S5SAA-NH2 (sidechain bridge or staple) [compound 2, i, i + 7 alkene stapled peptide ATSP-7041 (2/3), cis-isomer, acetylated]",percentage helicity,[1],48%
CC(C)C[C@H](NC(=O)CCCCCNC(=S)Nc1ccc2c(c1)C(=O)OC21c2ccc(O)cc2Oc2cc(O)ccc21)C(=O)N[C@H](C(=O)N[C@@H](Cc1ccccc1)C(=O)N[C@@H](CCC(=O)O)C(=O)N[C@@H](Cc1c[nH]cn1)C(=O)N[C@@H](Cc1ccc(O)cc1)C(=O)N[C@@H](Cc1c[nH]c2ccccc12)C(=O)N[C@@H](C)C(=O)N[C@@H](CCC(N)=O)C(=O)N[C@@H](CC(C)C)C(=O)N[C@H](C(=O)N[C@@H](CO)C(N)=O)[C@@H](C)O)[C@@H](C)O [1FITC] ({FITC-Ahx}-LTFEHYWAQLTS-NH2),Kd,[2],20.1 ± 0.23 nM
"Ac-LTFS7EYWAQ(Cba)S7SAA-NH2 (sidechain bridge or staple) [compound 4, i, i + 7 diyne-girder stapled peptide analogue of ATSP-7041, acetylated]",percentage helicity,[1],59%
CC(C)C[C@H](NC(=O)CCCCCNC(=S)Nc1ccc2c(c1)C(=O)OC21c2ccc(O)cc2Oc2cc(O)ccc21)C(=O)N[C@H](C(=O)N[C@@H](Cc1ccccc1)C(=O)N[C@@]1(C)CCCCCC#CC#CCCCCC[C@@](C)(C(=O)N[C@@H](CO)C(=O)N[C@@H](C)C(=O)N[C@@H](C)C(N)=O)NC(=O)[C@H](CC2CCC2)NC(=O)[C@H](CCC(N)=O)NC(=O)[C@H](C)NC(=O)[C@H](Cc2c[nH]c3ccccc23)NC(=O)[C@H](Cc2ccc(O)cc2)NC(=O)[C@H](CCC(=O)O)NC1=O)[C@@H](C)O [4FITC],Kd,[3],1.39 ± 0.08 nM
